Where two headings read alike, the source gives them in different places.
Tests used:
Assay type in all cases: cell-based
E. cloacae M-20 = assay: MIC by agar dilution (CLSI) against highly resistant ESBL strain
Description: (§1) The results on activity of cefepime and other cephalosporin antibacterial agents in combination with tazobactam against highly resistant ESBL strains are given Table 1. In a typical study, overnight grown bacterial cultures were diluted appropriately and inoculated on the agar media containing doubling dilutions of the antibiotic. Observation for growth or no growth was performed after 16-20 h of incubation at 35±2° C. in ambient air. The overall procedure was performed as per Clinical and Laboratory Standards Institute (CLSI) recommendations. This experimental was followed for Examples 2-4 and 6 below (Table 2-4 and 7).

E. coli 7MP [1] = assay: as above
Description: as §1

E. coli B-89 [2] = assay: as above
Description: as §1

E. coli M50 [3] = assay: as above
Description: as §1

K. pneumoniae M150 = assay: as above; details: Klebsiella pneumoniae
Description: as §1

E. coli 7MP [4] = assay: Quantitative drug diffusion assay (disc, zone of inhibition, CLSI); set-up: key to Interpretation of zone as per CLSI recommendations: R: Resistant; I: Intermediate; S: Sensitive (Interpretation as per CLSI recommendations, 2010)
Description: (§2) Activity of cefepime in combination with tazobactam and various penicillins in combination with respective ESBL inhibitors was also investigated against highly resistant ESBL strains in quantitative drug diffusion assay performed as per CLSI recommendations (Clinical and Laboratory Standards Institute (CLSI), performance Standards for Antimicrobial Susceptibility Testing, 20th Informational Supplement, M 100-S20, Volume 30, No. 1, 2010).
(§3) In a typical study, overnight grown bacterial cultures after appropriate dilution were seed inoculated in the molten, cooled agar media and plates poured. Antibiotics containing 6 mm diameter discs were place on the top of the agar surface. Zone of inhibition based observation was performed after 16-18 h of incubation at 35±2° C. in ambient air. The overall procedure was performed as per CLSI recommendations (Table 5 and 6). These assays are routinely used in determining possibility of treating a particular infection using antibiotic and/or their combinations. For example, in case of treating an infection caused by E. coli (M138) using Augmentin® [commercially available combination: Amoxicillin (500 mg)+Clavulanic acid (125 mg)], the zone inhibition values need to be in the sensitive (S) range.

E. coli B-123 = assay: as above; set-up: key to Interpretation of zone as per CLSI recommendations: R: Resistant; I: Intermediate; S: Sensitive (Interpretation as per CLSI recommendations, 2010)
Description: as §2, §3

E. coli B-89 [5] = assay: as above; set-up: key to Interpretation of zone as per CLSI recommendations: R: Resistant; I: Intermediate; S: Sensitive (Interpretation as per CLSI recommendations, 2010)
Description: as §2, §3

E. coli M-138 = assay: as above; set-up: key to Interpretation of zone as per CLSI recommendations: R: Resistant; I: Intermediate; S: Sensitive (Interpretation as per CLSI recommendations, 2010)
Description: as §2, §3

E. coli M50 [6] = assay: as above; set-up: key to Interpretation of zone as per CLSI recommendations: R: Resistant; I: Intermediate; S: Sensitive (Interpretation as per CLSI recommendations, 2010)
Description: as §2, §3

E. coli S-112 = assay: as above; set-up: key to Interpretation of zone as per CLSI recommendations: R: Resistant; I: Intermediate; S: Sensitive (Interpretation as per CLSI recommendations, 2010)
Description: as §2, §3

[7] = ESBL inhibitor 0 mcg (antibiotic alone)
[8] = Table 5, with Clavulanic acid 10 mcg
[9] = Table 6, with Clavulanic acid 10 mcg

## CC1(C)S[C@@H]2[C@H](NC(=O)[C@H](N)c3ccc(O)cc3)C(=O)N2[C@H]1C(=O)O [Amoxicillin]
E. cloacae M-20; E. cloacae M-20, with Tazobactam 4 mcg
  MIC: >64 µg/mL
E. cloacae M-20; E. cloacae M-20, with Tazobactam 8 mcg
  MIC: >64 µg/mL
E. cloacae M-20; Enterobacter cloacae, M20, 20 h
  MIC: > 128 µg/mL
E. coli 7MP [1]; E. coli 7MP, with Tazobactam 4 mcg
  MIC: >64 µg/mL
E. coli 7MP [1]; E. coli 7MP, with Tazobactam 8 mcg
  MIC: >64 µg/mL
E. coli 7MP [1]; Escherichia coli, 7MP, 20 h
  MIC: > 128 µg/mL
E. coli B-89 [2]; E. coli B-89, with Tazobactam 4 mcg
  MIC: >64 µg/mL
E. coli B-89 [2]; E. coli B-89, with Tazobactam 8 mcg
  MIC: >64 µg/mL
E. coli B-89 [2]; Escherichia coli, B89, 20 h
  MIC: > 128 µg/mL
E. coli M50 [3]; Escherichia coli, M50, 20 h, Tazobactam 0 mcg (antibiotic alone)
  MIC: > 128 µg/mL
E. coli M50 [3]; with Tazobactam 4 mcg
  MIC: >64 µg/mL
E. coli M50 [3]; with Tazobactam 8 mcg
  MIC: >64 µg/mL
K. pneumoniae M150; M150
  MIC: > 128 µg/mL
K. pneumoniae M150; M150, K. pneumoniae M150, with Tazobactam 4 mcg, read-out: MIC
  MIC: > 64 µg/mL
K. pneumoniae M150; M150, K. pneumoniae M150, with Tazobactam 8 mcg, read-out: MIC
  MIC: > 64 µg/mL
E. coli 7MP [4]; [7]
  Zone of Inhibition: Nil
E. coli 7MP [4]; Table 5, ESBL inhibitor 0 mcg
  Interpretation of zone as per CLSI recommendations: (R)
E. coli 7MP [4]; [8]
  Interpretation of zone as per CLSI recommendations: (R)
E. coli 7MP [4]; Table 6, ESBL inhibitor 0 mcg
  Interpretation of zone as per CLSI recommendations: (R)
E. coli 7MP [4]; [9]
  Interpretation of zone as per CLSI recommendations: (R)
E. coli 7MP [4]; with Clavulanic acid 10 mcg
  Zone of Inhibition: Nil
E. coli B-123; [7]
  Zone of Inhibition: Nil
E. coli B-123; Table 5, ESBL inhibitor 0 mcg
  Interpretation of zone as per CLSI recommendations: (R)
E. coli B-123; [8]
  Interpretation of zone as per CLSI recommendations: (R)
E. coli B-123; Table 6, ESBL inhibitor 0 mcg
  Interpretation of zone as per CLSI recommendations: (R)
E. coli B-123; [9]
  Interpretation of zone as per CLSI recommendations: (R)
E. coli B-123; with Clavulanic acid 10 mcg
  Zone of Inhibition: Nil
E. coli B-89 [5]; [7]
  Zone of Inhibition: Nil
E. coli B-89 [5]; Table 5, ESBL inhibitor 0 mcg
  Interpretation of zone as per CLSI recommendations: (R)
E. coli B-89 [5]; [8]
  Interpretation of zone as per CLSI recommendations: (R)
E. coli B-89 [5]; Table 6, ESBL inhibitor 0 mcg
  Interpretation of zone as per CLSI recommendations: (R)
E. coli B-89 [5]; [9]
  Interpretation of zone as per CLSI recommendations: (R)
E. coli B-89 [5]; with Clavulanic acid 10 mcg
  Zone of Inhibition: Nil
E. coli M-138; [7]
  Zone of Inhibition: Nil
E. coli M-138; Table 5, ESBL inhibitor 0 mcg
  Interpretation of zone as per CLSI recommendations: (R)
E. coli M-138; [8]
  Interpretation of zone as per CLSI recommendations: (R)
E. coli M-138; Table 6, ESBL inhibitor 0 mcg
  Interpretation of zone as per CLSI recommendations: (R)
E. coli M-138; [9]
  Interpretation of zone as per CLSI recommendations: (R)
E. coli M-138; with Clavulanic acid 10 mcg
  Zone of Inhibition: Nil
E. coli M50 [6]; [7]
  Zone of Inhibition: Nil
E. coli M50 [6]; Table 5, ESBL inhibitor 0 mcg
  Interpretation of zone as per CLSI recommendations: (R)
E. coli M50 [6]; [8]
  Interpretation of zone as per CLSI recommendations: (R)
E. coli M50 [6]; Table 6, ESBL inhibitor 0 mcg
  Interpretation of zone as per CLSI recommendations: (R)
E. coli M50 [6]; [9]
  Interpretation of zone as per CLSI recommendations: (R)
E. coli M50 [6]; with Clavulanic acid 10 mcg
  Zone of Inhibition: Nil
E. coli S-112; [7]
  Zone of Inhibition: Nil
E. coli S-112; Table 5, ESBL inhibitor 0 mcg
  Interpretation of zone as per CLSI recommendations: (R)
E. coli S-112; [8]
  Interpretation of zone as per CLSI recommendations: (R)
E. coli S-112; Table 6, ESBL inhibitor 0 mcg
  Interpretation of zone as per CLSI recommendations: (R)
E. coli S-112; [9]
  Interpretation of zone as per CLSI recommendations: (R)
E. coli S-112; with Clavulanic acid 10 mcg
  Zone of Inhibition: Nil

Source: patent publication US20160175318A1, “COMPOSITIONS COMPRISING ANTIBACTERIAL AGENT AND TAZOBACTAM” (WOCKHARDT LIMITED, priority 2013, published 2016)
